# Data: patent EP2518159A1, “Method for determining the neurodevelopmental toxicity of a compound in vitro” (priority 2011, dated 2012)
# Experiments:
# Conditions in all cases: ES-D3 neural differentiation culture, exposed from day 3, harvested on day 4 (24h exposure); relative to DMSO control (1 = unchanged); 25 nM MeHg, 100 µM cyproconazole, 1000 µM valproic acid, 25 µM hexaconazole
# [1] = test system: Shisa6; assay: Gene expression change of Shisa6 in neural differentiation culture of embryonic stem cells (Affymetrix microarray)
# Method: (§1) Murine embryonic stem cells (ESC) (ES-D3, ATCC, Rockville, MD, USA) were routinely subcultured every 2-3 days and grown as a monolayer in CM supplemented with leukemia inhibiting factor (LIF) (Chemicon, Temecula, CA, USA) at a final concentration of 1000 units/ml. The cells were maintained in a humidified atmosphere at 37°C and 5% CO2.
# (§2) Differentiation of ESC into the neural lineage was carried out as described earlier (Theunissen et al., 2010). In brief, stem cell suspensions (3.75×10^4 cells/ml) were placed on ice before the initiation of the culture. Drops (20µl) containing 750 cells in CM were placed onto the inner side of the lid of a 90 cm Petri dish filled with phosphate-buffered saline (PBS) (Gibco BRL, Gaithersburg, MD) and incubated at 37 °C, 90% relative humidity and 5% CO2. After 3 days of hanging drop culture embryoid bodies (EB) had formed and were subsequently transferred to 60mm bacterial Petri dishes (Greiner Bio-one, Frickenhausen, Germany) containing CM supplemented with 0.5 µM retinoic acid (RA). On day 5, EB were plated on laminin (Roche, Basel, Switzerland) coated dishes (Corning Incorporated, Corning, NY, USA) in LS medium supplemented with 2.5 ug/ml fibronectin (Invitrogen, Carlsbad, CA, USA). One day later, on day 6, the LS medium was replaced by ITS medium. On day 7, EB were washed with phosphate buffered saline (PBS) (Gibco BRL, Gaithersburg, MD, USA) and incubated in cell dissociation buffer (Gibco BRL, Gaithersburg, MD, USA) for 3 minutes. Then EB were carefully detached from each Petri dish without dissociating the EBs and the entire content was replated on poly-L-ornithine (Sigma-Aldrich, Zwijndrecht, The Netherlands) and laminin coated dish in N2 medium supplemented with 10 ng/ml basic fibroblast growth factor (bFGF) (Srtathmann-Biotec AG, Englewood, CO, USA). The N2 medium supplemented with bFGF was replaced every other day for 7 days.
# (§3) Control differentiation cultures were harvested on culture days 3, 4 and 5 (8 replicates per group). Differentiation cultures were exposed to the 3 neurodevelopmental toxicants and controls from day 3 onwards and harvested on day 4 (24h exposure) (8 replicates per group). Cells (-40-50 EB/sample) were directly collected in RNA Protect (Qiagen Benelux, Venlo, The Netherlands) to stabilize RNA, and total RNA was purified using the Qiagen RNEasy Plus Mini Kit (Qiagen Benelux, Venlo, The Netherlands) following the manufacturer's instructions. RNA quantity was determined using the NanoDrop Spectophotometer (Isogen Lifescience, de Meern, The Netherlands). RNA integrity was assessed on the 2100 Bioanalyzer (Agilent, Santa Clara, CA, USA) using the RNA 6000 Nano Chip Kit (Agilent, Santa Clara, CA, USA), and good quality RNA was used for gene expression analysis (RNA integrity number (RIN) > 8.0).
# [2] = test system: Car4; assay: Gene expression change of Car4 in neural differentiation culture of embryonic stem cells (Affymetrix microarray)
# Method: as §1, §2, §3
# [3] = test system: Emilin2; assay: Gene expression change of Emilin2 in neural differentiation culture of embryonic stem cells (Affymetrix microarray)
# Method: as §1, §2, §3
Structure (SMILES),"Ratio, gene expression change Shisa6 [1]","Ratio, gene expression change Car4 [2]","Ratio, gene expression change Emilin2 [3]"
"CCCCC(O)(Cn1cncn1)c1ccc(Cl)cc1Cl (stereo not drawn) [Hex, Hexaconazole]",1.096,0.936,1.185
"[CH3][Hg][Cl] [MeHg, Methylmercury chloride]",1.380,0.686,1.351
"CCCC(CCC)C(=O)[O-].[Na+] [VPA, Valproic acid sodium salt]",0.752,1.373,2.063
"CC(C1CC1)C(O)(Cn1cncn1)c1ccc(Cl)cc1 (stereo not drawn) [Cyp, Cyproconazole]",1.228,0.777,1.270
